EP1297826A1, “Nasal pharmaceutical compositions containing a NK-2 antagonist” (Menarini Ricerche S.p.A., priority 2001, dated 2003)
Read-outs that look alike come from different tables or passages of the source.

Key:
[1] = rat, in vivo; cited from earlier work
[2] = in vivo
[3] = rat, in vivo
visceral hyperalgesia = details: animal models of IBS; cited from earlier work
[4] = human, in vivo
[5] = dog, in vivo
[6] = rat, in vivo; cited from earlier work; remark: listed apart in the source

Maximum bioavailability [2]: ≤ 2%
Maximum bioavailability [3]: ≤ 20%
oral bioavailability [4]: 1%
Maximum bioavailability [5]: ≤ 2%
Substance: cyclo ( [Asn(β--D-2-deoxy-2-acetamido-Glc)-Asp-Trp-Phe-Dap-Leu]cyclo(2β--5β-)) [nepadutant]
absoption [1]: > 80%
visceral hyperalgesia (visceral hyperalgesia): corrects visceral hyperalgesia
oral bioavailability [6]: 1%
